According to patent publication US4980359A, “Isoquinoline derivatives and their use” (Sandoz Ltd., priority 1988, dated 1990):

Key:
[1] = test system: PAF-induced airways hyperreactivity; assay: Suppression of airways hyperreactivity, PAF-treated animals; type: in vivo, Guinea-pigs; settings: Cavia porcellus, iv, method B
Procedure: Guinea-pigs are anesthetized and prepared for recording of lung function as described under example A.2. above. Intravenous injection of low dose bombesin (240 ng/kg) establishes airways sensitivity to spasmogens. Following infusion of PAF (platelet activating factor) over 1 hr.

[2] = test system: bombesin-induced bronchospasm; assay: Bronchodilator activity in vivo (reversal of bombesin-induced bronchospasm); design: species or system Guinea pigs (Dunkin-Hartley); settings: Cavia porcellus, method A.2, intra. duodenally
Procedure: 2. Bronchodilator activity in vivo
Guinea pigs (Dunkin-Hartley, .male., 400-600 g) are anesthetized with phenobarbital (100-mg/kg i.p.) and pentobarbital (30 mg/kg i.p.) and paralyzed with gallamine (10 mg/kg i.m.). Animals are ventilated via a tracheal cannula (10 ml/kg, 1Hz.). Blood pressure and heart rate are recorded at the carotid artery. Ventilation is monitored by a Fleisch flow transducer in lien with the inspiratory circuit. When making measurements of flow, coincident pressure changes in the thorax are monitored directly via an intrathoracic trochar, permitting display of differential pressure relative to the trachea. From this information resistance and compliance are calculated at each inspiration.
Continuous intravenous infusion of bombesin (50-100 ng/kg/min) induces sustained bronchospasm. Capacity of test-substance to reverse response when administered intra-duodenally via a 12 gauge metal needle fixed by a purse string ligature into the peripheral end of the transected duodenum serves as a measure of efficacy in reversing established bronchospasm.
The bronchodilator response is taken as the percentage reduction of the maximal response to bombesin, measured at regular intervals, up to 64 mins..

[3] = test system: guinea-pig tracheal ring preparations; assay: Bronchospasmolytic activity in vitro (relaxation of tracheal rings); settings: Cavia porcellus; method A.1, guinea-pig tracheal rings in vitro
From the text: 1. Bronchospasmolytic activity in vitro
The trachea is excised from freshly sacrificed guinea-pigs (Dunkin-Hatley (350-500 g) and transected in the transverse plane to give rings of tissue of ca. 3-5 mm deep. Individual rings are mounted vertically on stainless steel supports, one of which is fixed at the base of an organ bath, the other being attached to an isometric transducer. The rings are bathed in Krebs solution (composition […]: NaHCO3 25, NaCl 113, KCl 4.7, MgSO4.7H2) 1.2, KHhd 2PO4 1.2, CaCl2 2.5, Glucose 11.7) at 37° C. and gassed with O2 /CO2 (95:5, v/v). Rings prepared in this manner, preloaded with 1 g, generate spontaneous tone and, after a period of equilibration (45-60 min.), relax consistently on addition of spasmolytic drugs. Tension can be enhanced by addition of carbachol (10^-6 M) or histamine (10^-4 M). To ascertain spasmolytic activity, test substances are dissolved in physiological saline and added in increasing quantities to the organ bath at 10 min. intervals to provide a cumulative concentration-effect curve.
In the above test model compounds of formula I and their pharmaceutically acceptable acid addition salts produce concentrationrelated relaxation of guinea-pig tracheal ring preparations irrespective of the contractile agency at concentrations of from about 10^-7 to about 10^-5 M.

[4] = test system: PAF-induced lung eosinophil accumulation; assay: Inhibition of eosinophil accumulation (PAF-induced lung eosinophilia); type: in vivo, Guinea-pigs (Dunkin-Hartley); settings: Cavia porcellus, sc, 168 h, method C, over 7 days
Procedure: EXAMPLE C: INHIBITION OF EOSINOPHIL ACCUMULATION
Guinea-pigs (Dunkin-Hartley 400-600 g) are injected intraperitoneally with 10 μg/kg of PAF, a procedure which produces lung eosinophilia.
Animals are sacrificed with pentobarbital (100 mg/kg i.p.) 24 hours later. The trachea is exposed and cannulated and the airway lumen washed by introduction and aspiration of 10 ml aliquots (x6) of buffered modified Tyrode solution (composition mM: NaHCO3 11.9, NaCl 136.9, KCl 2.7, Na2 HPO4, glucose 5.6, EDTA 19.8; protein % w/v=gelatin 0.1, BSA 0.5; pH to 7.4 by addition of 2N NaOH). Total fluid recovery generally exceeds 80%.
Cell suspensions are concentrated by low speed centrifugation (200 g for 10 mins.) and the resulting cell pellet is resuspended in 1 ml modified Tyrode solution. Total cell counts are effected in a haemocytometer by diluting 10 μl cell suspension in 90 μl Turks fluid. Differential cell counts are made from smears fixed in 100% methanol and stained with Leishman stain. At least 500 cells smear are counted at 1000 fold magnification to differentiate cell types.
Test compound is administered over 7 days at varying concentration in 1 mg/kg s.c. amounts with exposure to PAF occurring 5 days after commencement of test compound administration. […]

Structure (SMILES)	ED50 [1]	ED50 [2]	IC50 [3]	ED50 [4]
Cn1c(=O)c2[nH]cnc2n(C)c1=O [Theophylline, theophylline]	5 mg/kg	11 mg/kg	77 µM	5 mg/kg
COCCOc1cc(OCCOC)cc(-c2nc(C)cc3cc(OC)c(OC)cc23)c1 [Example 12, 3-methyl-6,7-dimethoxy-1-(3,5-dimethoxyethoxy-phenyl)-isoquinoline]	< 1 mg/kg	~2 mg/kg	0.3 µM	< 2 mg/kg
